Laboratory results: patent US20240285670A1, “THERAPEUTIC TREATMENT OF TUMORS BY BLOCKING THE HEME SYNTHESIS-EXPORT AXIS” (Università degli Studi di Torino, priority 2021, published 2024)

How the values were obtained:
BTECs [1] = test: Heme content in BTECs; format: cell-based, human; conditions: FLVCR1a knockdown vs scramble shRNA BTECs
Source text: (A) Frequency (%) of patient tumors with overexpression of FLVCR1 compared to their matched normal tissues across multiple cancer types. The number of patients showing tumor FLVCR1 overexpression relative to the total number of patients examined are indicated in the plot. Data derive from the BioXpress (Wan et al., 2015). […] Transcript abundance, normalized to beta-actin mRNA expression (for SHSY-5Y cells) or to 18s mRNA (for BTECs), is expressed as a fold increase over a calibrator sample. Data represent mean±SEM, n=4. For statistical analyses, an unpaired Student's t-test was used; ***p<0.001. (C, E) Western blot analysis of FLVCR1a expression in SHSY-5Y cells (C) and BTECs (E). […] Band intensities were measured by densitometry and normalized to vinculin expression. […] Values are expressed as pmol heme/mg protein. […] Values are expressed as pmol heme/mg protein. […]
Intracellular heme concentration was measured using a fluorescence assay, as previously reported (Sinclair et al., 2001). […] Fluorescence (wavelength: excitation 405 nm-emission 660-720 nm) of the resultant protoporphyrin was assessed on a Glomax Multi Detection System (Promega Corporation, Madison WI, USA).
The endogenous protoporphyrin content (measured in parallel unheated samples in oxalic acid) was subtracted. […] Results were expressed as relative fluorescence intensity or, alternatively, as pmol of heme/mg total protein.

BTECs [2] = test: TCA cycle flux in BTECs; format: cell-based, human; conditions: FLVCR1a-silenced vs scramble shRNA BTECs
Source text: Results were expressed as nmol NAD*/min/mg mitochondrial protein for complex I, nmol reduced cytochrome c/min/mg mitochondrial protein for complexes II-III, nmol oxidized cytochrome c/min/mg mitochondrial protein for complex IV. Data represent mean±SEM, n=3. For statistical analyses, an unpaired Student's t-test was used; *=p<0.05, **=p<0.01, *=p<0.001. […] Results are expressed as nmol/mg mitochondrial proteins. Data represent mean±SEM, n=3. For statistical analyses, an unpaired Student's t-test was used; *=p<0.05. […] Results are expressed as pmol CO2/h/mg protein. Data represent mean±SEM, n=3. For statistical analyses, an unpaired Student's t-test was used; **=p<0.01. […] Results were expressed as nmol NAD*/min/mg mitochondrial protein for complex I, nmol reduced cytochrome c/min/mg mitochondrial protein for complexes II-III, nmol oxidized cytochrome c/min/mg mitochondrial protein for complex IV. […] Results are expressed as nmol/mg mitochondrial proteins. […] Results are expressed as pmol CO2/h/mg protein. […] (H) TCA cycle enzymes activities are reported in boxes and expressed as mU/mg mitochondrial proteins. […] Results were expressed as nmol NAD^+/min/mg mitochondrial protein for complex I, nmol reduced cytochrome c/min/mg mitochondrial protein for complexes II-III, nmol oxidized cytochrome c/min/mg mitochondrial protein for complex IV. […] Results are expressed as nmol/mg mitochondrial proteins. […]

In the case of “FLVCR1a shRNA: shRNA specifically down-regulating FLVCR1a without targeting FLVCR1b; pLKO.1 lentiviral clone TRCN0000059599, antisense SEQ ID No.: 2 (antisense TTGCTAATGATGCTGTACTGG; sense CCAGTACAGCATCATTAGCAA)”, the “heme levels at the steady state” value (BTECs [1]) is reported as “increased heme levels” and the TCA cycle flux (BTECs [2]) is reported as “increased TCA cycle flux”.
